Patent US10870647B2, “Imidazopyridine derivative, method for preparing same, and pharmaceutical composition containing same as active ingredient for preventing or treating cancer” (DAEGU-GYEONGBUK MEDICAL INNOVATION FOUNDATION, priority 2016, dated 2020)
Read-outs that look alike come from different tables or passages of the source.

Tests used:
Experiment in all cases: Kinase selectivity, scanMAX Kinase assay panel (DiscoverX), % control at 1 uM
Format in all cases: binding
[1] = target: T1, scanMAX Kinase assay panel (Homo sapiens, UniProt Q16513); settings: PKN2; 1 uM; read-out: Percent Control (%)
T1 construct: purchased DiscoverX
Procedure, shortened: (§1)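 Read-out is percent of control, derived from the signal with compound relative to positive and negative controls: (compound − positive)/(negative − positive) × 100. Each enzyme received test drug at 1 uM in DMSO, and values under 35% count as active.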

[2] = target: T2, scanMAX Kinase assay panel (Homo sapiens, UniProt P07949, V804M); settings: RET (V804M); 1 uM; read-out: Percent Control (%)
T2 construct: purchased DiscoverX
Procedure, shortened: as §1

[3] = target: T3, scanMAX Kinase assay panel (Homo sapiens, UniProt Q15418); settings: 1 uM, read-out: Percent Control (%)
T3 construct: purchased DiscoverX
Procedure, shortened: as §1

[4] = target: T4, scanMAX Kinase assay panel (Homo sapiens, UniProt P53778); settings: p38-gamma; 1 uM; read-out: Percent Control (%)
T4 construct: purchased DiscoverX
T4 sequence (P53778 1-367): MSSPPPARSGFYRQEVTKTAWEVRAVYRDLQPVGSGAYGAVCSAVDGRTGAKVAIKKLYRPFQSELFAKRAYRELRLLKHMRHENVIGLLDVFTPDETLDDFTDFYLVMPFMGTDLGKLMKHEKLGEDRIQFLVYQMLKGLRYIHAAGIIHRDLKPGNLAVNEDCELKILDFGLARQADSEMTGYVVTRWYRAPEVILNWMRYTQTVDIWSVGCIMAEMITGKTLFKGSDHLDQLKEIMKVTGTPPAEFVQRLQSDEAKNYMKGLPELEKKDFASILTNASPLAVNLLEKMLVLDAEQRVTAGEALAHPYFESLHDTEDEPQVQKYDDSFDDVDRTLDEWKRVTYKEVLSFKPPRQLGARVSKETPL
Procedure, shortened: as §1

[5] = target: T5, scanMAX Kinase assay panel (Homo sapiens, UniProt Q8NE63); settings: HIPK4; 1 uM; read-out: Percent Control (%)
T5 construct: purchased DiscoverX
T5 sequence (Q8NE63 1-616): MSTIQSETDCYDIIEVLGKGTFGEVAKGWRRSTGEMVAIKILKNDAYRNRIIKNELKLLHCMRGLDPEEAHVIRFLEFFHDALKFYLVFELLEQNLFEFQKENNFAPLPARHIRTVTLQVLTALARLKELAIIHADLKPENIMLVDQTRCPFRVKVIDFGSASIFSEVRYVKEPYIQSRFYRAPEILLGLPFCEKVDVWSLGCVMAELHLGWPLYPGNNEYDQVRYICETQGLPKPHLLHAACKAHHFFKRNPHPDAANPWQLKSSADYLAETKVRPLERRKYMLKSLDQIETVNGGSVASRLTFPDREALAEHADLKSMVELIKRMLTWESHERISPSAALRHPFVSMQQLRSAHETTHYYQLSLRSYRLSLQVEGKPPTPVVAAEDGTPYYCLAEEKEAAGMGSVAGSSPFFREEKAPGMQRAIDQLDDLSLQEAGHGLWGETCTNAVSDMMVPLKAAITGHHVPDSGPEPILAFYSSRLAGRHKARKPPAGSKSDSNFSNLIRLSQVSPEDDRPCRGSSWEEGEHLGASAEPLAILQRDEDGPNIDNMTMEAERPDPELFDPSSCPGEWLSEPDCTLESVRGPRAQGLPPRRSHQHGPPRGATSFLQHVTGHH
Procedure, shortened: as §1

[6] = target: T6, scanMAX Kinase assay panel (Homo sapiens, UniProt P51451); settings: BLK; 1 uM; read-out: Percent Control (%)
T6 construct: purchased DiscoverX
Procedure, shortened: as §1

[7] = target: T7, scanMAX Kinase assay panel (Homo sapiens, UniProt P42685); settings: FRK; 1 uM; read-out: Percent Control (%)
T7 construct: purchased DiscoverX
Procedure, shortened: as §1

[8] = target: T8, scanMAX Kinase assay panel (Homo sapiens, UniProt Q8NEV4); settings: MYO3A; 1 uM; read-out: Percent Control (%)
T8 construct: purchased DiscoverX
Procedure, shortened: as §1

[9] = target: T9, scanMAX Kinase assay panel (Homo sapiens, UniProt P50613); settings: CDK7; 1 uM; read-out: Percent Control (%)
T9 construct: purchased DiscoverX
Procedure, shortened: as §1

[10] = target: T10, scanMAX Kinase assay panel (Homo sapiens, UniProt P31749); settings: AKT1; 1 uM; read-out: Percent Control (%)
T10 construct: purchased DiscoverX
Procedure, shortened: as §1

[11] = target: T11, scanMAX Kinase assay panel (Homo sapiens, UniProt P10721, D816H); settings: KIT (D816H); 1 uM; read-out: Percent Control (%)
T11 construct: purchased DiscoverX
Procedure, shortened: as §1

[12] = target: T12, scanMAX Kinase assay panel (Homo sapiens, UniProt Q9Y463); settings: DYRK1B; 1 uM; read-out: Percent Control (%)
T12 construct: purchased DiscoverX
Procedure, shortened: as §1

[13] = target: T13, scanMAX Kinase assay panel (Homo sapiens, UniProt P42680); settings: TEC; 1 uM; read-out: Percent Control (%)
T13 construct: purchased DiscoverX
T13 sequence (P42680 1-631): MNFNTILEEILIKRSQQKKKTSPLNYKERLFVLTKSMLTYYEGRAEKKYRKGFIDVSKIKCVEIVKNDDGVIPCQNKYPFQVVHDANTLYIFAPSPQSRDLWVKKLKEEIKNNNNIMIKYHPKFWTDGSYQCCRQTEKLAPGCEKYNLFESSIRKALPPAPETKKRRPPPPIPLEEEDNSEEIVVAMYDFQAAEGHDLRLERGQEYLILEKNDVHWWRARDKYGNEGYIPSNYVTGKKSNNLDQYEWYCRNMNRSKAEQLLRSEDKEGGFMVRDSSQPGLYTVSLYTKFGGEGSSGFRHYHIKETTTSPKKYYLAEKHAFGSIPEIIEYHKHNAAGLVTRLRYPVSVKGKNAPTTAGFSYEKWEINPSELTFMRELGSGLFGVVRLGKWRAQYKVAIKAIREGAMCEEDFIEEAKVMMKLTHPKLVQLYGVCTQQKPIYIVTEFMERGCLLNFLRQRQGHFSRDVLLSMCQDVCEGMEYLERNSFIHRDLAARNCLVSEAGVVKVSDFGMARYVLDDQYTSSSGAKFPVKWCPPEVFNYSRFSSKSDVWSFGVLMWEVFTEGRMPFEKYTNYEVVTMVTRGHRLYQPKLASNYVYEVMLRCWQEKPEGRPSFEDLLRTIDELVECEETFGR
Procedure, shortened: as §1

T11 sequence (P10721 26-976 D816H): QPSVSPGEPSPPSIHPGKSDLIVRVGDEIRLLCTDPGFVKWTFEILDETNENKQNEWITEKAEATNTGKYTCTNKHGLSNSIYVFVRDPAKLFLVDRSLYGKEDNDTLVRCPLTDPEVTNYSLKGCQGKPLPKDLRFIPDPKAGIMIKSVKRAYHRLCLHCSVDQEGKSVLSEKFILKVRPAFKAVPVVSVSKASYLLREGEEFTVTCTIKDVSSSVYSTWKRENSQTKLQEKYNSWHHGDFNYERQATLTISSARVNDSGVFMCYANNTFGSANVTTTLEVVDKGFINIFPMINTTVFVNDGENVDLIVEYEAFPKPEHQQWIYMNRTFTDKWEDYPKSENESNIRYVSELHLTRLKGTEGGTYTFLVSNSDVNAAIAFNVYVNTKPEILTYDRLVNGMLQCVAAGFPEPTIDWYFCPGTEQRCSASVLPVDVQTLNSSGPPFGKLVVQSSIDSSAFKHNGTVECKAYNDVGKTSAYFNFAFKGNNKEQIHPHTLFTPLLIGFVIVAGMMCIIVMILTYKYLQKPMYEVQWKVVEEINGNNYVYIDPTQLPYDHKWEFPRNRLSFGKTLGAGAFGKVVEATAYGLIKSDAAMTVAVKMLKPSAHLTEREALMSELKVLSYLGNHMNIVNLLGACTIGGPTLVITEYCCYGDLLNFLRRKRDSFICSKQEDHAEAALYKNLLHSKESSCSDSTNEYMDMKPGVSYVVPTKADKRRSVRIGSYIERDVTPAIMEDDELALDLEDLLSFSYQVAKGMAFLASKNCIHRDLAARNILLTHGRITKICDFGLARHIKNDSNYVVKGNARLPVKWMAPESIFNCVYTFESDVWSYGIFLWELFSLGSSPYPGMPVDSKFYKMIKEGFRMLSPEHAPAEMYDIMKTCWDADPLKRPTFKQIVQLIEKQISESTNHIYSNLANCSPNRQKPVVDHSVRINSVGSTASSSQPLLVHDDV
T2 sequence (P07949 29-1114 V804M): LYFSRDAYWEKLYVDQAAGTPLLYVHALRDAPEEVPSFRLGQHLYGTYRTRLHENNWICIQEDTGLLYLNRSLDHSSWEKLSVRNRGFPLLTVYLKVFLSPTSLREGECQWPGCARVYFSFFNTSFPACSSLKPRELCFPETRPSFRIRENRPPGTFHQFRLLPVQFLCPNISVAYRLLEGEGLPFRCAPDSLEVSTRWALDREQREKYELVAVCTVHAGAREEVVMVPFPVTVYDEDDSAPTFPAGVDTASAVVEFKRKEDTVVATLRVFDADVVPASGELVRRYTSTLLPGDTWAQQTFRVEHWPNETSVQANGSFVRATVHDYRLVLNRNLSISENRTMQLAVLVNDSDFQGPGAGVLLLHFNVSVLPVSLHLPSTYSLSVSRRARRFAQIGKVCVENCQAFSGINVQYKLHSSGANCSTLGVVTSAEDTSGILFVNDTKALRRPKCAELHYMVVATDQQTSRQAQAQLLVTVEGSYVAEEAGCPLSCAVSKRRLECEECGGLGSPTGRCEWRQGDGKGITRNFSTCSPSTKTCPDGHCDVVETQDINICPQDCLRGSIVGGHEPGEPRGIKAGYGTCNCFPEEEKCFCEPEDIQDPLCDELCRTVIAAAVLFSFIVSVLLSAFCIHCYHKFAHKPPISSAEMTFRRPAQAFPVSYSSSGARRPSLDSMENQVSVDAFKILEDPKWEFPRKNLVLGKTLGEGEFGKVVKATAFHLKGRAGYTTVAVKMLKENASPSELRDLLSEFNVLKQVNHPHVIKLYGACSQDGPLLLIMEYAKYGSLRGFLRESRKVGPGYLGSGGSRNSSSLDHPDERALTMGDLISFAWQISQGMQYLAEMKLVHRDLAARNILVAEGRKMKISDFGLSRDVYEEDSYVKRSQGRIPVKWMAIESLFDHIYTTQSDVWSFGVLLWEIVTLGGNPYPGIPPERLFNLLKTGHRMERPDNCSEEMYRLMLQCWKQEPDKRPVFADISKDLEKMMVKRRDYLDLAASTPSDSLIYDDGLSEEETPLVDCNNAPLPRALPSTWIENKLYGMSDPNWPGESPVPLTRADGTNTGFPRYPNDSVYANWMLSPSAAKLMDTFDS
T9 sequence (P50613 whole entry): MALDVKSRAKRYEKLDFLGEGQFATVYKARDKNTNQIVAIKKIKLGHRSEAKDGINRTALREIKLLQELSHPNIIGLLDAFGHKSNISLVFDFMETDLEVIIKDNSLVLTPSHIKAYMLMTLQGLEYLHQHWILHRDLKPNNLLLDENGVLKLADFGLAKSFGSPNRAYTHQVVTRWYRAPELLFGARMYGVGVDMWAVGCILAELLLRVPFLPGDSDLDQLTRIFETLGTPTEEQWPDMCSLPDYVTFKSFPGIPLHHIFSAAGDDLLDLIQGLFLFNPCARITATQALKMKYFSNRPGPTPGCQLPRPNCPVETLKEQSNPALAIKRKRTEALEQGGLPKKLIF
T10 sequence (P31749 whole entry): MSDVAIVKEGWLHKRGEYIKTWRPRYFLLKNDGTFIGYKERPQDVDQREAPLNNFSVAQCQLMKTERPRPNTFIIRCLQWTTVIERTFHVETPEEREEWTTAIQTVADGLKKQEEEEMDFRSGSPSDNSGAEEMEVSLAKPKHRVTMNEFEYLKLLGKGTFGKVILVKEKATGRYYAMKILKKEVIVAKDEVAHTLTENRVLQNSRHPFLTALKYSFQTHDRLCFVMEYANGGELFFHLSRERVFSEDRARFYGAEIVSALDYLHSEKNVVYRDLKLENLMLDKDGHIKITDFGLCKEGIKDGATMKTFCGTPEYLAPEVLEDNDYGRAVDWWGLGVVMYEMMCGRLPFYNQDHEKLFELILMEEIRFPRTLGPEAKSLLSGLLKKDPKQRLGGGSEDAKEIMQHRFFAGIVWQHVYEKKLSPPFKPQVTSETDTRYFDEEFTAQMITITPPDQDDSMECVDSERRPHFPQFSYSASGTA
T6 sequence (P51451 whole entry): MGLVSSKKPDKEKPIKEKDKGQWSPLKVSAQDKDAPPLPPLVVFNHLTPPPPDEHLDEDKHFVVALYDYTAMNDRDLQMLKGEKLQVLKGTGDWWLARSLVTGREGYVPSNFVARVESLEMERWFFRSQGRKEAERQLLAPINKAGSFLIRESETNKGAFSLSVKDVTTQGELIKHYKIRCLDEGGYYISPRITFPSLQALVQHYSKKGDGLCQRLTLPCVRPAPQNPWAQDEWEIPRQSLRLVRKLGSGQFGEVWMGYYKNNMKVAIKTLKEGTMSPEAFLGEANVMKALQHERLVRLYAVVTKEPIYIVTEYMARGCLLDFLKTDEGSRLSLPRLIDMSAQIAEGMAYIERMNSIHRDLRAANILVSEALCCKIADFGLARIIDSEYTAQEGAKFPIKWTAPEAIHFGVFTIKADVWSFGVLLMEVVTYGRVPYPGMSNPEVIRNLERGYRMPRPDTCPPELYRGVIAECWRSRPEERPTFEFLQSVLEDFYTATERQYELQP
T8 sequence (Q8NEV4 whole entry): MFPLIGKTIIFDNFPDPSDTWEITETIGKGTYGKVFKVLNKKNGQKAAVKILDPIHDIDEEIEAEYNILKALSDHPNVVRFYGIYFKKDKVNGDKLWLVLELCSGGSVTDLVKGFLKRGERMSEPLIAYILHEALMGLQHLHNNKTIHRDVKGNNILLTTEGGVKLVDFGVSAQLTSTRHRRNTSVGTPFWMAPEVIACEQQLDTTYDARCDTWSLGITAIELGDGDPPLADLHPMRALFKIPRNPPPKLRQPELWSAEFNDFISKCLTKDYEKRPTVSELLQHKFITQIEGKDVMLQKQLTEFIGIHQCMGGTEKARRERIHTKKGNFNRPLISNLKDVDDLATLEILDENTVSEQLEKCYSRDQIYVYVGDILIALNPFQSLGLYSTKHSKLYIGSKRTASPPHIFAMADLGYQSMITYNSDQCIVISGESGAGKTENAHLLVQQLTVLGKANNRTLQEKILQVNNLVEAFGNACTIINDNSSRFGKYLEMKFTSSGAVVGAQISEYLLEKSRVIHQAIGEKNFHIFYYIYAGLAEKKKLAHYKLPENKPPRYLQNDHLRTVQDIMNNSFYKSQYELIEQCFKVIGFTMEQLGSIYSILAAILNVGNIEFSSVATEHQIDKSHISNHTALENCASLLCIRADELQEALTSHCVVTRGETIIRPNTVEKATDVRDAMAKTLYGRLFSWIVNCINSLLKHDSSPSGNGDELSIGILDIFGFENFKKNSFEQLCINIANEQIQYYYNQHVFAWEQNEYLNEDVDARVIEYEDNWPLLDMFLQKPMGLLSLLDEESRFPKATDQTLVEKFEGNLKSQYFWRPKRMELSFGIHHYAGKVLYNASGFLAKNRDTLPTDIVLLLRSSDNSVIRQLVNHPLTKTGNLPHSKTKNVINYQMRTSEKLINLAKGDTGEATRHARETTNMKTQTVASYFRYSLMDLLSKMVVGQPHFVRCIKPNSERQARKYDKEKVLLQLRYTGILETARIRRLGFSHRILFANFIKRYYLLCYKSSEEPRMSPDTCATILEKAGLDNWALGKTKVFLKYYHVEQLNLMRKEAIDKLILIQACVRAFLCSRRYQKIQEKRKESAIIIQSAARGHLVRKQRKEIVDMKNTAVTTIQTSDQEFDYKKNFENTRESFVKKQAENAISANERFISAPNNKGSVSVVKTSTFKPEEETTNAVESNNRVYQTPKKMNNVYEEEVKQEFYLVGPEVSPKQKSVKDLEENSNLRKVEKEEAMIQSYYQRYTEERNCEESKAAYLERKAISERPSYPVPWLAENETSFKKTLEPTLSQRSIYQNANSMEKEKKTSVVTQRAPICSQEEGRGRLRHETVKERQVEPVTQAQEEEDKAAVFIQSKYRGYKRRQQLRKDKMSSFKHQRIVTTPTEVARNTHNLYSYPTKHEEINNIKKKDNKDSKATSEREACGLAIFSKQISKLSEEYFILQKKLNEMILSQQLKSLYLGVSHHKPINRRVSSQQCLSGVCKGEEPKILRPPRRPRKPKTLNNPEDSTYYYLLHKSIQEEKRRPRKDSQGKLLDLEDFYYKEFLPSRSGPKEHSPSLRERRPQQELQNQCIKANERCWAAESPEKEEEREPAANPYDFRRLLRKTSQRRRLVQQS

Structure (SMILES)	remaining binding at 1 µM [1]	remaining binding at 1 µM [2]	remaining binding at 1 µM ([3]; RSK1 (Kin.Dom.1-N-terminal))	remaining binding at 1 µM ([3]; RSK1 (Kin.Dom.2-C-terminal))	remaining binding at 1 µM [4]	remaining binding at 1 µM [5]	remaining binding at 1 µM [6]	remaining binding at 1 µM [7]	remaining binding at 1 µM [8]	remaining binding at 1 µM [9]	remaining binding at 1 µM [10]	remaining binding at 1 µM [11]	remaining binding at 1 µM [12]	remaining binding at 1 µM [13]
Cc1ccc(NC(=O)C2(C(=O)Nc3ccc(F)cc3)CC2)cc1C#Cc1cnc2c(Nc3cnn(C(C)C)c3)cccn12 [Example 78]	89%	100%	100%	95%	100%	84%	35%	69%	100%	82%	98%	63%	99%	100%
Cc1cn(-c2cc(NC(=O)c3ccc(C)c(C#Cc4cnc5c(Nc6cnn(C)c6)cccn45)c3)cc(C(F)(F)F)c2)cn1 [Example 12, 4-methyl-N-(3-(4-methyl-1H-imidazol-1-yl)-5-(trifluoromethyl)phenyl)-3-((8-((1-methyl-1H-pyrazol-4-yl)amino)imidazo[1,2-a]pyridin-3-yl)ethynyl)benzamide]	83%	1%	79%	69%	55%	66%	1%	14%	88%	66%	88%	70%	100%	8%
Cc1ccc(C(=O)Nc2ccc(CN3CCN(C)CC3)c(C(F)(F)F)c2)cc1C#Cc1cnc2c(Nc3cnn(C)c3)cccn12 [Example 1, 4-methyl-3-((8-((1-methyl-1H-pyrazol-4-yl)amino)imidazo[1,2-a]pyridin-3-yl)ethynyl)-N-(4-((4-methylpiperazin-1-yl)methyl)-3-(trifluoromethyl)phenyl)benzamide]	83%	0%	60%	64%	18%	2%	0%	2%	14%	4%	80%	7%	93%	0%
